One data set deals with Hep3B cells. Briefly: Hep3B cell proliferation (CellTiter-Glo, 72 hours). It is filed as cell-based. As to conditions: read-out: Hep3B IC50. The protocol:
1. Test method: inoculating Hep3B cells (ATCC) in logarithmic growth phase at an appropriate density in a 96-well culture plate, with 100 μL per well. After overnight culture, different concentrations of compounds were added to stay for 72 hours, and menstruum control group (negative control) was set, and the incubation was performed under the condition of 5% CO2 at 37° C. Adding 10 mM compound stock solution to the cells, after the cells were incubated with the compounds for 72 hours, the effects of the compounds on cell proliferation were determined by CellTiter-Glo (Promega) method. 30 μL CTG reagent was added to each well and the resulting mixtures were placed in a 37° C. incubator for 2-4 hours. Then the plate was read by a full-wavelength microplate enzyme reader Envision at a […].
The inhibition rates (%) of the compounds on tumor cell growth were calculated by the following formula: inhibition rate (%)=(OD negative control well−OD administration well)/OD negative control well×100%. IC50 values were obtained by four parameters regression using Graphpad Prism 5 software.
In general terms: In ATP-based viability assays light output follows the ATP content of the culture.

Data set [1] can be described thus: ADME tests: liver microsome metabolic stability and direct inhibition test. As to conditions: metabolic stability, direct inhibition test. It is filed as in vitro ADME. How it is done:
(1) Metabolic stability test: 150 μL system of liver microsome (final concentration 0.5 mg/mL) was used for metabolic stability incubation, the system contained NADPH (final concentration 1 mM), 1 μM test compound and positive control Midazolam or negative control Atenolol, then the reaction was terminated with Tinidazole-containing acetonitrile at 0 min, 5 min, 10 min and 30 min respectively, and the mixtures were vortexed for 10 minutes and centrifuged for 10 minutes at 15000 rmp, 50 μL of the supernatants were added into 96-well plate for injection. The metabolic stability of the compounds was calculated by measuring the relative reduction of the original drug.
(2) Direct inhibition test (DI test): Direct inhibition incubation was carried out with 100 μL system of human liver microsome (final concentration 0.2 mg/mL), the system containing NADPH (final concentration 1 mM), 10 μM compound, positive inhibitor cocktail (Ketoconazole 10 μM, Quinidine 10 μM, Sulfaphenazolum 100 μM, α-Naphthoflavone 10 μM, Tranylcypromine 1000 μM), negative control (BPS containing 0.1% DMSO) and mixed probe substrates (Midazolam 10 μM, Testosterone 100 μM, Dextromethorphan […], Diclofenac 20 μM, Phenacetin 100 μM, Mephenytoin 100 μM) was incubated for 20 minutes and then the reaction was terminated. The relative activity of enzymes was calculated by measuring the relative production of metabolites.
A general note: Microsomes from liver hold many membrane-bound enzymes, among them those of drug oxidation.

In data set [2] the test system is various tumor cells (HuH-7, SNU-16, KG1, UM-UC-14, RT-112 etc.). The data set is described as follows: Proliferation inhibitory activity on various tumor cells (SRB or CCK8). It is filed as cell-based. The following applies: SRB or CCK8 method; read-out: proliferation inhibitory activities on various tumor cells. Background: Tetrazolium assays rely on reduction of a dye to a coloured formazan, in cell work by metabolically active cells.

Another data set concerns the target FGFR4 (Homo sapiens (Human), UniProt P22455). Briefly: Inhibitory activity on kinase FGFR4 (Caliper mobility shift). It is filed as biochemical. As to conditions: read-out: FGFR4 IC50. How it is done: (§1) (1). Preparation of 1×Kinase buffer; (2) Preparation of the gradient concentrations of the compounds: the concentration of the compounds to be tested started from 10 μM, which was 3-fold diluted to prepare 10 dilutions, and then tested in duplicated wells. The compounds were 100-fold serially diluted into 10 dilutions with different final concentrations in 96-well plates, each of which was further diluted with 1×Kinase buffer to prepare an intermediate dilution having a concentration of 5 times the final concentration; (3) adding 5 μL of each of the prepared compound solution into the compound wells of 384-well plates, and each concentration set single well; adding 5 μL of 5% DMSO into negative control wells and positive control wells respectively; (4) preparing a kinase solution having a concentration of 2.5 times the final concentration with 1×kinase buffer; (5) adding 10 μL of kinase solution at a concentration of 2.5 times the final concentration into the compound wells and the positive control wells respectively; and adding 10 μL of 1×Kinase buffer into the negative control wells; (6) centrifuging at 1000 rpm for 30 seconds, and incubating at room temperature for 10 minutes after shaking and mixing evenly; (7) preparing a mixed solution of ATP and Kinase substrate 22 having a concentration of 2.5 times the final concentration with 1×Kinase Buffer; (8) adding 10 μL of the mixed solution of ATP and substrate at a concentration of 2.5 times the final concentration to initiate the reaction; (9) Centrifuging the 384-well plates at 1000 rpm for 30 seconds, and incubating at 28° C. for corresponding time respectively after shaking and mixing; (10) adding 30 μL of stop detection solution to stop the kinase reaction, centrifuging at 1000 rpm for 30 seconds, and shaking and mixing the mixture evenly; (11) reading the conversion rate by Caliper Ezreader II. The dose-effect curve was fitted by the log (inhibitor) vs. response-variable slope of GraphPad Prism 5 with the log value of concentration as the X axis and the percentage inhibition rate as the Y axis, then the IC50 value of each compound on the enzyme activity was obtained.

Data set [3] is described as follows: Pharmacokinetics in rats or mice after intragastric and intravenous administration. It is filed as in vivo, SD rats or BALB/c mice. As to conditions: iv 3 mg/kg, intragastric 10 mg/kg. The protocol:
(3) LC/MS/MS method was used to measure the drug concentration in plasma at different time points after the embodiment compounds were administered to the rats or mice by intragastric administration and intravenous injection respectively, so as to study the pharmacokinetic behavior of the compounds of the present disclosure in rats or mice and evaluate the pharmacokinetic characteristics thereof. […]

Another data set deals with FGFR1 (Homo sapiens (Human), UniProt P11362). The data set is described as follows: Inhibitory activity on kinase FGFR1 (Caliper mobility shift). The format is biochemical. The following applies: read-out: FGFR1 IC50. The protocol: as §1
For a further data set, the system named is xenograft tumors. The data set is described as follows: Xenograft tumor growth in nude mice. The following applies: oral, daily for three weeks, lower dose (even less than 20 mg/kg). The format is in vivo. How it is done: 1. The tumor tissue in vigorous growth period was cut into about 1.5 mm^3, and subcutaneously inoculated into the right armpit of nude mice under sterile condition. The diameter of the subcutaneous transplanted tumors in nude mice was measured with vernier caliper, and the animals were randomly divided into groups when the average volume of the tumor reached about 130 mm^3. The embodiment compounds (prepared to the desired concentration with water for injection containing 1% Tween 80 for later use) were orally administered at a predetermined dose every day for three weeks, while a same amount of menstruum was administered in the menstruum control group. During the whole experiment, the diameter of the xenograft tumor was measured twice a week and the weight of the mice was weighed at the same time. The tumor volume (TV) was calculated by the formula: TV=½×a×b^2, where a and b represent length and width respectively. According to the measured results, the relative tumor volume (RTV) was calculated by the formula: RTV=Vt/V0, where V0 was the tumor volume measured when the mice were divided into cages for administration (i.e., d0) and Vt was the tumor volume at each measurement. […]

For data set [4], the system named is EGFR, VEGFR, PDGFR, FGFR, RET, MET, Src, Lyn, Syk, MEK, CDK, RA, ROS. The data set is described as follows: Inhibitory activities on different kinases (selectivity). It is filed as biochemical. As to conditions: versus different kinases. How it is done:
The inhibitory activities of the compounds of the present disclosure on different kinases such as EGFR, VEGFR, PDGFR, FGFR, RET, MET, Src, Lyn, Syk, MEK, CDK, RA, ROS, etc., were also determined.

FGFR4, sequence (P22455 22-802): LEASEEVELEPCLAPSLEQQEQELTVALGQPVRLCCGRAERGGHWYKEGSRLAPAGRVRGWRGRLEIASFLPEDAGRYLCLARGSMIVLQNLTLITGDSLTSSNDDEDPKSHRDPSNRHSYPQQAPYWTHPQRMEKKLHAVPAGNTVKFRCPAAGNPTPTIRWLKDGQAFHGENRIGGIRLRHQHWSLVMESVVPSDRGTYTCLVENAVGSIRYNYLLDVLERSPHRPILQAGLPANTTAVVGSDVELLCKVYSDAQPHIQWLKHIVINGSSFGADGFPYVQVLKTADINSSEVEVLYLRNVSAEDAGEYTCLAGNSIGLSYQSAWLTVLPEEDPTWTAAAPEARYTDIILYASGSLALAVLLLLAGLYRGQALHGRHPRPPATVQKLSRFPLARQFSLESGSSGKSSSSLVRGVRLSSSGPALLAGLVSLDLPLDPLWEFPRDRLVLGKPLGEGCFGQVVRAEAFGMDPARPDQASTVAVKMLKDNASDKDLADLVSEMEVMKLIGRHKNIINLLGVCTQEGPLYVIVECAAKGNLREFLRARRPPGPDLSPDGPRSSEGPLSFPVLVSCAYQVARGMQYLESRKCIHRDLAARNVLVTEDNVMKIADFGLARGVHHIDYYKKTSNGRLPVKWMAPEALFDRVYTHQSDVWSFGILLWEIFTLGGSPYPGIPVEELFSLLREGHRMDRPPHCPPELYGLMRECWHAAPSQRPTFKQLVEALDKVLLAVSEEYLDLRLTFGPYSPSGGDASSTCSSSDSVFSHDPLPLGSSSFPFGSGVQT
FGFR1, sequence (P11362 22-822): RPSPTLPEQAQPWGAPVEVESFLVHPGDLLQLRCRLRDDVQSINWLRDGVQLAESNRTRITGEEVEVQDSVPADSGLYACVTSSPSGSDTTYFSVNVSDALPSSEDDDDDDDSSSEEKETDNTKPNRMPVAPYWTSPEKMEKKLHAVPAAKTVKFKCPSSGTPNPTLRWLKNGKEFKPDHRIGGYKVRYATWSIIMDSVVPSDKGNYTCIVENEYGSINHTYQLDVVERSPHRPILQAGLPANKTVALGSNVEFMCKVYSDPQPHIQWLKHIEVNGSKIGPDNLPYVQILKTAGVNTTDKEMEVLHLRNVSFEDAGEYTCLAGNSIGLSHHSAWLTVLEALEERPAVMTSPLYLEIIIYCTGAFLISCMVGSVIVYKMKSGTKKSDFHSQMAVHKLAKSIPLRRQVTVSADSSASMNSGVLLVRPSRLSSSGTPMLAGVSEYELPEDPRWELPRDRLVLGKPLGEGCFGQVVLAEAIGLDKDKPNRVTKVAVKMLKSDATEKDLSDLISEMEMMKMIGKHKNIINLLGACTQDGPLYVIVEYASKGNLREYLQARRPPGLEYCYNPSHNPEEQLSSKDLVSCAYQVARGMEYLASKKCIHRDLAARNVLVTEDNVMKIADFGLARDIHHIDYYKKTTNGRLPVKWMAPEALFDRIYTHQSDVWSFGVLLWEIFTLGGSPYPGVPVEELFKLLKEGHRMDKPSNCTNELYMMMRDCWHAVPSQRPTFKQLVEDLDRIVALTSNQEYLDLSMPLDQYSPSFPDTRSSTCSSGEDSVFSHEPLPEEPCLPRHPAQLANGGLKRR

As to `C=CC(=O)Nc1ccc(-c2cn3c(n2)c(-c2c(Cl)c(OC)cc(OC)c2Cl)cc2cnc(NC)nc23)cc1` [Embodiment 17, N-(4-(6-(2,6-dichloro-3,5-phenyldimethoxyphenyl)-2-(methylamine)imidazo[1′,2′:1,6]pyrido[2,3-d]pyrimidin-8-yl)phenyl)acrylamide], the IC50 in the data set with Hep3B cells is 20 to 200 nM; in data set [2], < 100 nM; on FGFR4 it was > 200 nM; on FGFR1 it was < 20 nM. For the same molecule, in data set [1], the ADME properties entry is “better ADME properties”. Moreover, the “absorption and metabolism properties in rats and mice” value in data set [3] was “good absorption and metabolism properties in rats and mice”. Also, the anti-tumor rate entry with xenograft tumors is “more than 80%”. Also, the kinase selectivity result in data set [4] is on record as “greater than 100 times”.
